# Like-named read-outs stand apart in the source and are kept apart here.
# Columns and labels:
# [1] = cited from earlier work
# [2] = format: in vivo, human; conditions: for V/F, geometric mean (%CV): single oral 45 mg tablet
# [3] = Safety and tolerability of single-dose ponatinib 45 mg in healthy subjects; format: in vivo, human
"Time at which maximum mean concentrations were reached ([2]; across high-fat, low-fat and fasted regimens, single 45-mg tablet) [h]","V/F, geometric mean (%CV) ([2]; fasted)","V/F, geometric mean (%CV) ([2]; high-fat meal)","V/F, geometric mean (%CV) ([2]; low-fat meal)","Time post-dose at which maximum plasma concentration was observed ([2]; overall, fasting, high-fat and low-fat) [h]",SMILES,Effect of food intake on PK [1],"Quantifiability of ponatinib in plasma ([2]; all three treatment regimens, lower limit 0·5 ng/mL)","Subjects with AEs at least possibly related to treatment, n (%) ([3]; 24 subjects, all regimens)",Severe AEs ([3]; all regimens),Treatment-related increased lipase levels ([3]; all regimens),"Vital signs, ECG parameters or physical examinations ([3]; all regimens)",High triacylglycerol lipase levels ([3]; clinically significant abnormality),"Tolerability ([3]; healthy subjects, regardless of food intake regimen)","Clinically significant abnormalities (laboratory), number ([3]; in a total of five subjects)"
,,,,,Cc1nc(Nc2ncc(C(=O)Nc3c(C)cccc3Cl)s2)cc(N2CCN(CCO)CC2)n1 [dasatinib],unaffected by food intake,,,,,,,,
5 to 6,1242 (30·0) L,1104 (28·8) L,1278 (37·6) L,~6,"Cc1ccc(C(=O)Nc2ccc(CN3CCN(C)CC3)c(C(F)(F)F)c2)cc1C#Cc1cnc2cccnn12 [ponatinib, 3-[2-(imidazo[1,2-b]pyridazin-3-yl)ethynyl]-4-methyl-N-{4-[(4-methylpiperazin-1-yl)methyl]-3-(trifluoromethyl)phenyl}benzamide]",,quantifiable through the 96-h sampling interval,10 (41·7%) subjects,no severe AEs,three,No clinically significant abnormalities,three,generally well tolerated,five

# Reference: paper PMC4286001 (Journal of Clinical Pharmacy and Therapeutics, 2013)
